pEC50: −log10 of the molar value.
molecular target: T1, hFXR (Homo sapiens, UniProt Q96RI1); assay: In Vitro FXR Assay (TK): hFXR/hRXR TK-ECRE-luc reporter in transfected CV-1 cells; type: cell-based; conditions: 18 hrs incubation, luminescence, compounds with maximum efficacy <25% of the Fexarmine control classified as '+'
T1 construct: expressed in transfected cells; host or cells: CV-1 cells
T1 sequence (Q96RI1 1-486): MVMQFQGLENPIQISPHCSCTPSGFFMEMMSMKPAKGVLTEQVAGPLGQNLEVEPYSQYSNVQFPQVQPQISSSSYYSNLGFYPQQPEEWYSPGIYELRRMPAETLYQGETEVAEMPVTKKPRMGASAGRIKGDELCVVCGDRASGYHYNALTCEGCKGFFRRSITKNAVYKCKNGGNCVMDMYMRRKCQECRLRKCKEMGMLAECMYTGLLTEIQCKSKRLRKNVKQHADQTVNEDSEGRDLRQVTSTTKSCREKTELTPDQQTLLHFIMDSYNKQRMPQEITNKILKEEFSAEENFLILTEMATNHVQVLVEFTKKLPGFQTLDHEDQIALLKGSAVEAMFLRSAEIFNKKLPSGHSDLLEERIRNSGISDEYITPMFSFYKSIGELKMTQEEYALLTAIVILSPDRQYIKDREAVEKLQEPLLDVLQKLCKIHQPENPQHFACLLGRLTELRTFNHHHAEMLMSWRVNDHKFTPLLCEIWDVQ
T1 sequence (P19793 1-462 partner): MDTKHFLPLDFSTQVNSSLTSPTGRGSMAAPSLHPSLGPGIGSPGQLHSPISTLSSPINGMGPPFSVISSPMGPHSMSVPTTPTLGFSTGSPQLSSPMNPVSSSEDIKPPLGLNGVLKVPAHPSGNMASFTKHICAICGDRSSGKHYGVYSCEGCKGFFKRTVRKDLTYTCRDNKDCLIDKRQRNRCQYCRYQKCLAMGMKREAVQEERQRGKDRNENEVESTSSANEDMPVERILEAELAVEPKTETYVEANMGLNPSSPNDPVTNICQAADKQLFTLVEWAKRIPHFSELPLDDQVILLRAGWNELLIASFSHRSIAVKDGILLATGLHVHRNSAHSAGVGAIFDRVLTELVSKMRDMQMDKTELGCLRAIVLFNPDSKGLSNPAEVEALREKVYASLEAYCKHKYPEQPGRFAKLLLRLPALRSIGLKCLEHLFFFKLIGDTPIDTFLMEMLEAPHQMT
In short: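 CV-1 cells transiently cotransfected with hFXR, hRXR, TK-ECRE-luc reporter and pCMX-YFP plasmids in charcoal-stripped serum medium. Serially diluted compounds added for 18 h at 37° C., then cells lysed and luciferase luminescence measured.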

SMILES | pEC50
COc1ncc(-c2cccc(N(CC34CCC(c5ccc(OC)c(C)c5)(CC3)CC4)C(=O)[C@H]3CC[C@H](O)CC3)c2)s1 [Compound 11, trans-4-Hydroxy-N-((4-(4-methoxy-3-methylphenyl)bicyclo[2.2.2]octan-1-yl)methyl)-N-(3-(2-methoxythiazol-5-yl)phenyl)cyclohexanecarboxamide] | ≥ 6.60
COc1ncc(-c2cccc(N(CC3CCC(c4ccc(OC)c(C)c4)CC3C)C(=O)[C@H]3CC[C@H](O)CC3)c2)s1 (stereo partly drawn) [Compound 12, trans-4-Hydroxy-N-((4-(4-methoxy-3-methylphenyl)-2-methylcyclohexyl)methyl)-N-(3-(2-methoxythiazol-5-yl)phenyl)cyclohexanecarboxamide] | ≥ 6.60
COc1ccc([C@H]2CC[C@H](CN(c3cccc(-c4cnc(C5CC5)s4)c3)C(=O)[C@H]3CC[C@H](N(C)C)CC3)CC2)cc1C [Compound 13, trans-N-(3-(2-Cyclopropylthiazol-5-yl)phenyl)-4-(dimethylamino)-N-((trans-4-(4-methoxy-3-methylphenyl)cyclohexyl)methyl) cyclohexanecarboxamide] | ≤ 6.00
COc1ncc(-c2cccc(N(C[C@H]3CC[C@H](c4ccc(OC)c(C)c4)CC3)C(=O)[C@H]3CC[C@H](N)CC3)c2)s1 [Compound 13.01, trans-4-Amino-N-((trans-4-(4-methoxy-3-methylphenyl)cyclohexyl)methyl)-N-(3-(2-methoxythiazol-5-yl)phenyl)cyclohexanecarboxamide] | ≤ 6.00
COc1ccc([C@H]2CC[C@H](CN(c3cccc(CNc4nccs4)c3)C(=O)[C@H]3CC[C@H](O)CC3)CC2)cc1C [Compound 14, trans-4-Hydroxy-N-((trans-4-(4-methoxy-3-methylphenyl)cyclohexyl)methyl)-N-(3-((thiazol-2-ylamino)methyl)phenyl)cyclohexanecarboxamide] | ≤ 6.00
COc1ccc([C@H]2CC[C@H](CN(c3cccc(NCc4nccs4)c3)C(=O)[C@H]3CC[C@H](O)CC3)CC2)cc1C [Compound 15, trans-4-Hydroxy-N-((trans-4-(4-methoxy-3-methylphenyl)cyclohexyl)methyl)-N-(3-((thiazol-2-ylmethyl)amino)phenyl)cyclohexanecarboxamide] | 6.00 to 6.60

The next lines start with the values.

pEC50 | SMILES
≥ 6.60 | COc1ccc([C@H]2CC[C@H](CN(c3cccc(OCc4nccs4)c3)C(=O)[C@H]3CC[C@H](O)CC3)CC2)cc1C [Compound 16, trans-4-Hydroxy-N-((trans-4-(4-methoxy-3-methylphenyl)cyclohexyl)methyl)-N-(3-(thiazol-2-ylmethoxy)phenyl)cyclohexanecarboxamide]
≥ 6.60 | COc1ccc([C@H]2CC[C@H](CN(c3cccc(COc4nccs4)c3)C(=O)[C@H]3CC[C@H](O)CC3)CC2)cc1C [Compound 17, trans-4-Hydroxy-N-((trans-4-(4-methoxy-3-methylphenyl)cyclohexyl)methyl)-N-(3-((thiazol-2-yloxy)methyl)phenyl)cyclohexanecarboxamide]
≥ 6.60 | COc1ccc([C@H]2CC[C@H](CN(c3cccc(C#Cc4nccs4)c3)C(=O)[C@H]3CC[C@H](O)CC3)CC2)cc1C [Compound 18, trans-4-Hydroxy-N-((trans-4-(4-methoxy-3-methylphenyl)cyclohexyl)methyl)-N-(3-(thiazol-2-ylethynyl)phenyl)cyclohexanecarboxamide]

From US20200131142A1, “FARNESOID X RECEPTOR AGONISTS AND USES THEREOF” (Metacrine, Inc., priority 2017, published 2020)
